The target in one series is BTK C481S (Homo sapiens, UniProt Q06187, C481S). Briefly: BTK degradation (Total BTK HTRF) in TMD8 cells expressing BTK-C481S. The arrangement: endogenous in cells; host or cells: TMD8 BTK-C481S (clone2C3), Cas9 RNP knock-in. To be noted: TMD8 BTK-C481S (clone2C3) cells, treatment time 4 h. It is filed as cell-based. On the procedure: (§1) BTK levels were determined using Cisbio Total-BTK HTRF (Homologous Time-Resolved Fluorescence) kit (63ADK064PEG) according to the manufacturer's protocol. Briefly, cells were incubated in 1× supplied lysis buffer for 30 minutes. In an opaque white low volume 96-well plate (Cisbio, 66PL96005), cell lysate was combined with two different specific BTK antibodies, one conjugated with Eu^3+-Cryptate FRET donor and one conjugated with d2 FRET acceptor. Assay controls include wells containing cell lysate with only the Eu^3+-Cryptate FRET donor antibody and wells containing both HTRF antibodies and lysis buffer without cells or control lysate provided by Cisbio. HTRF ratio was calculated as (acceptor signal at 665 nm/donor signal at 620 nm)×10^4. Background HTRF levels were determined from the control well containing the donor, but no acceptor, antibody. Background HTRF levels were subtracted from all samples. Readouts were reported as HTRF levels relative to HTRF levels of DMSO-treated cells. Four-parameter non-linear regressions were performed in GraphPad Prism 7.02 to obtain DC50 values.
BTK Degradation (Total BTK HTRF) at Four Hours in TMD8 Cells Expressing BTK-C481S
This example evaluates the potency of CTM in degrading […]. The BTK binding moieties utilized in CTMs bind to the BTK active site. This example evaluates whether the active site mutation C481S affects CTM-induced degradation of BTK.
Background: In TR-FRET formats the signal depends on donor and acceptor labels being close together.

Series [1] deals with TMD8 cells. Briefly: Cell viability assay (CellTiter-Glo), TMD8 cells. Conditions: for EC50: Homo sapiens, TMD8, 72 h; for EMAX (% viable cells): TMD8 cells, treatment time 72 h.
Description: (§5) Cell viability was determined using CellTiter-Glo 2.0 Luminescent Cell Viability Assay (Promega, G9242), which quantitates the amount of ATP present as a proxy for the number of viable cells in culture. Cells were plated with densities between 2000-4000 cells per well in 96-well plates. […] CellTiter-Glo reagent was added to cells at a dilution of 1:20, and the plate was incubated ten minutes at room temperature prior to reading the luminescence signal using an EnVision plate reader. Controls included cells treated with DMSO and wells that contained no cells, only media. Background luminescence signal was determined by control wells containing no cells, only media, and was then subtracted from all sample wells. Luminescence values were then normalized to DMSO-treated wells and reported at proportion viable cells.
(§6) Here, the ability of CTMs to affect viability in BTK-dependent cell lines was assessed.
Series [2] has as its system TMD8 C481S cells. As to the kind of experiment: Cell viability assay (CellTiter-Glo), TMD8 C481S cells. Conditions: for EC50: Homo sapiens, TMD8, 72 h; for EMAX (% viable cells): TMD8 C481S cells, treatment time 72 h.
Description: as §5
For series [3], the target named is BTK (Homo sapiens, UniProt Q06187). As to the kind of experiment: Cellular BTK degradation assay (Total BTK HTRF) in TMD8 cells. It is filed as cell-based. The arrangement: endogenous in cells; host or cells: TMD8. On the procedure:
Cellular BTK Degradation Assay
In Vitro Cellular Screening to Determine Potency as Measured by DC50 Values after Four Hour Incubation
as §1
Cellular BTK degradation was measured as above for four hours in TMD8 cells for two diastereomers of compound 130. DC50 and EC50 values are the concentration at which the response is halfway between the top and bottom of the fitted non-linear regression curve.
The present example evaluates whether potency of BTK CTMs shifts with longer timepoints. DC50 values are typically calculated with a 4-hour timepoint.

Series [4] deals with T1, BTK (Mus musculus, UniProt P35991).
T1 construct: from tissue; host or cells: mouse blood B cells / splenocytes (CD-1 or BALB/c)
As to the kind of experiment: In vivo degradation of BTK in mouse PD experiments with oral dosing. To be noted: 24 h, flow cytometry. Summed up:
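CD-1 or BALB/c mice dosed by oral gavage, screens at 90 mg/kg for 6 h, later at lower doses/longer times. Blood or splenocyte BTK measured by intracellular flow cytometry (or HTRF); % degradation from B-cell minus T-cell BTK geometric MFI, relative to vehicle.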
In general terms: A flow cytometer gives signals particle by particle.

The next series deals with Mino cells. As to the kind of experiment: Cell viability assay (CellTiter-Glo), Mino cells. To be noted: Mino cells, treatment time 72 h. It is filed as cell-based. From the text: (§2) This example evaluates effects of CTM-mediated degradation on cell viability. […] Mino and Rec-1 are models of Mantle Cell Lymphoma, which is sensitive to IMiDs.
On the technique in general: In ATP-based viability assays light output follows the ATP content of the culture.

The test system of series [5] is B cell receptor (BCR) signaling. Briefly: B cell activation assay (flow cytometry), human B cells. It counts as cell-based. To be noted: treatment 4 h, IgM stimulation 18 h. On the procedure:
(§3) Compound was present throughout the stimulation. Cells were stained with Live/Dead dye (Fisher L34976) and then fluorophore-conjugated antibodies against CD20 (Biolegend 302330), CD3 (BD Pharmingen 557705), CD86 (Biolegend 305416) and CD69 (Biolegend 310906). Stained cells were fixed in PFA and run on an Attune N×T Acoustic Focusing Flow Cytometer (Thermo-Fisher A29004), and data was analyzed using FlowJo (v10.5.3) and GraphPad Prism (v7.00) software. Single live lymphocytes were gated for B cells (CD20+CD3−) and T cells (CD3+CD20−), and the geometric mean fluorescence intensity (MFI) of CD86 and CD69 was calculated for each population. The MFI of the unstimulated sample was used to quantify baseline activation.
(§4) This example evaluates whether CTM treatment affects B cell receptor (BCR) signaling. BTK is activated downstream of the B cell receptor and leads to upregulation of activation markers CD86 and CD69 on the surface of B cells.

The next series has as its system Rec-1 cells. As to the kind of experiment: Cell viability assay (CellTiter-Glo), Rec-1 cells. It counts as cell-based.
Description: as §2

Series [6] has as its system B cell receptor (BCR) signaling. As to the kind of experiment: B cell activation assay (flow cytometry), mouse B cells. It is filed as cell-based. Conditions: treatment 4 h, IgM stimulation 18 h. On the procedure:
as §3, §4

In series [7] the test system is TMD8 cells. To be noted: human, 72 h.
Description: as §5, §6
Series [8] has as its system TMD8 C481S cells. To be noted: human, 72 h.
Description: as §5
The mark [9] stands for this setting: oral dose 10 mg/kg, splenocytes.

Like-named read-outs stand apart in the source and are kept apart here.

In the case of `NC(=O)c1ncc(-c2nccs2)nc1Nc1ccc(C2CCN(C[C@@H]3CCN(c4ccc5c(c4)C(=O)N(C4CCC(=O)NC4=O)C5=O)C3)CC2)cc1` (stereo partly shown) [Compound 148], the DC50 (commonly the concentration giving 50% degradation) amounted to 9.7 nM at BTK C481S and 0.68 nM at BTK [3] (treatment time 24 h). In addition, the EC50 (as a rule, the midpoint of the concentration-response curve) with TMD8 cells [1] was 3.27 nM; in the series on TMD8 C481S cells [2], 9.18 nM. Besides, the “EMAX (% viable cells)” value with TMD8 cells [1] is 2%; in the series on TMD8 C481S cells [2], 4%. In addition, the “% BTK Remaining” value at BTK [4] (oral dose 30 mg/kg, blood) came out at 24%.
Regarding `CC#CC(=O)N1CCC[C@H]1c1nc(-c2ccc(C(=O)Nc3ccccn3)cc2)c2c(N)nccn12` [Acalabrutinib, acalabrutinib, reference compound], the EC50 in the series with Mino cells (Homo sapiens) is 1240 nM; in [5] (read-out: CD69 EC50) it was 2 nM; in [5] (read-out: CD86 EC50), 3 nM; in the series on Rec-1 cells (Homo sapiens, Rec1, treatment time 72 h), 582 nM; in the series with TMD8 cells [1] it was 12 nM; with TMD8 C481S cells [2] it was over 2000 nM. Besides, the EC50 in [6] (read-out: CD69 EC50) was determined as 1 nM; in series [6] (read-out: CD86 EC50) it was 3 nM. Also, the “EMAX (% viable cells)” value in the series on Mino cells was found to be 84%; in the series on Rec-1 cells (treatment time 72 h) it was 76%; in the series with TMD8 cells [1], 35%; in the series on TMD8 C481S cells [2], 96%.
As to `NC(=O)c1ncc(-c2nccs2)nc1Nc1ccc(N2CCC3(CCN(Cc4ccc5c(c4)C(=O)N(C4CCC(=O)NC4=O)C5=O)CC3)CC2)cc1` (stereo not shown) [Compound 150], the DC50 at BTK [3] (treatment time 24 h) turned out to be 4.7 nM. Further, the “% BTK Remaining” value on BTK [4] (oral dose 30 mg/kg, blood) turned out to be 25%.
With `NC(=O)[C@H]1CCN(c2ncnc(N)c2F)C[C@@H]1N1CCC[C@@H](Nc2cc(Cl)cc(C(F)(F)F)c2)C1=O` [Vecabrutinib], the figures for the 50% effective concentration (EC50) with TMD8 cells [1] and in the series with TMD8 C481S cells [2] were 256 nM and 530 nM, respectively. Besides, the “EMAX (% viable cells)” value in the series on TMD8 cells [7] stood at 38%; in the series with TMD8 C481S cells [8] it was 51%.
On BTK [3] (treatment time 4 h), `CN1CCN([C@@H]2CCCN(c3cnc(C(N)=O)c(Nc4ccc(C5CCN(CC6CCN(c7ccc(C(=O)N[C@@H]8CCC(=O)NC8=O)nc7)CC6)CC5)cc4)n3)C2)C1=O` [Compound 194] yielded a half-maximal degradation concentration (DC50) of 4.3 nM. Moreover, the “% BTK Remaining” value turned out to be 90% on BTK [4] (oral dose 3 mg/kg, blood); 95% at BTK [4] (oral dose 3 mg/kg, splenocytes); 63% at BTK [4] (oral dose 10 mg/kg, blood); 57% at BTK [4] (setting [9]).
In the same order, the values of `CN1CCN([C@@H]2CCCN(c3cnc(C(N)=O)c(Nc4ccc(C5CCN(CC6CCN(c7ccc(C(=O)N[C@H]8CCC(=O)NC8=O)nc7)CC6)CC5)cc4)n3)C2)C1=O` [Compound 195] are 0.26 nM, 40%, 39%, 25% and 23%.
On to `CN1CCN([C@@H]2CCCN(c3cnc(C(N)=O)c(Nc4ccc(C5(C)CCN(CCCCc6cccc7c6CN(C6CCC(=O)NC6=O)C7=O)CC5)cc4)n3)C2)C1=O` (stereo partly shown) [Compound 21], for which, in the series with TMD8 cells [1], it took 1.6 nM to reach a half-maximal effect (EC50). Further, the “EMAX (% viable cells)” value in the series on TMD8 cells [7] was 19%.

These data come from patent US12600732B2, “Bifunctional compounds for degrading BTK via ubiquitin proteosome pathway” (NURIX THERAPEUTICS, INC., priority 2019, dated 2026).
